Measurements taken from US20260042764A1, “COMPOSITIONS AND METHODS FOR INHIBITION OF KRAS” (TheRas, Inc., priority 2022, published 2026).

Tests used:
[1] = biological target: T1, Avi-KRAS G12D (1-169) GppNHp/RAF1 RBD-3xFLAG (52-151) (Homo sapiens, UniProt P01116, G12D); test: Raf1-KRAS G12D-GppNHP disruption HTRF assay (Biological Example 1); type: binding
T1 construct: Avi-KRAS G12D (1-169)
Method in brief: (§1)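 Percent activity versus DMSO (100%) was derived from HTRF signal after KRAS–RAF1 RBD protein mix was incubated 1 h at room temperature with shaking and detection reagents were added for a further 1 h.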

[2] = biological target: T2, Avi-KRAS G12V (1-169) GppNHp/RAF1 RBD-3xFLAG (52-151) (Homo sapiens, UniProt P01116, G12V); test: Raf1-KRAS G12V-GppNHP disruption HTRF assay (Biological Example 1); type: binding
T2 construct: Avi-KRAS G12V (1-169)
Method in brief: as §1

[3] = system: SW620 cells (KRAS G12V); test: Cell-based pERK HTRF assay in SW620 cell (Biological Example 4); details: pERK HTRF
Method in brief: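 In SW620 cells grown in RPMI with 10% FBS, a 4 h compound treatment (0.25% DMSO, 9-point curve from 1 μM) preceded lysis. Phospho-ERK levels were then read by time-resolved FRET at 615 nm emission.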

[4] = biological target: T3, Avi-KRAS WT (1-169) GppNHp/RAF1 RBD-3xFLAG (52-151) (Homo sapiens, UniProt P01116); test: Raf1-KRAS WT-GppNHP disruption HTRF assay (Biological Example 1); type: binding
T3 construct: Avi-KRAS WT (1-169)
Method in brief: as §1

[5] = biological target: T4, Avi-KRAS G12R (1-169) GppNHp/RAF1 RBD-3xFLAG (52-151) (Homo sapiens, UniProt P01116, G12R); test: Raf1-KRAS G12R-GppNHP disruption HTRF assay (Biological Example 1); type: binding
T4 construct: Avi-KRAS G12R (1-169)
Method in brief: as §1

[6] = system: GP2d cells (KRAS G12D); test: Cell-based pERK HTRF assay in GP2d cell (Biological Example 2); details: GP2d (KRAS G12D) cells, pERK HTRF
Method in brief: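 60 min compound, 0.25% DMSO, 9-pt half-log curve from 1 μM or 100 nM; DMEM/10% FBS.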

[7] = Homo sapiens, SW-620, SW620 (KRAS G12V) cells
[8] = KRAS G12D, GppNHp-loaded, Table 11
[9] = KRAS G12V, GppNHp-loaded, Table 11
[10] = KRAS WT, GppNHp-loaded, Table 11
[11] = KRAS G12R, GppNHp-loaded, Table 11
[12] = KRAS G12D, GppNHp-loaded, class symbols
[13] = KRAS G12V, GppNHp-loaded, class symbols
[14] = Homo sapiens, SW-620, SW620 (KRAS G12V) cells, class symbols
[15] = KRAS WT, GppNHp-loaded, class symbols
[16] = KRAS G12R, GppNHp-loaded, class symbols

T1 sequence (P01116 1-169 isoform P01116-2 G12D): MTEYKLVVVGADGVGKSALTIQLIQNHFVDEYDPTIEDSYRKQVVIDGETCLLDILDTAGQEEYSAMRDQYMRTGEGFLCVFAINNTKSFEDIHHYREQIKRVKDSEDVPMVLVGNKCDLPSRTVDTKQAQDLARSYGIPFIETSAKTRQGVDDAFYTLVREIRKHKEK
T4 sequence (P01116 1-169 isoform P01116-2 G12R): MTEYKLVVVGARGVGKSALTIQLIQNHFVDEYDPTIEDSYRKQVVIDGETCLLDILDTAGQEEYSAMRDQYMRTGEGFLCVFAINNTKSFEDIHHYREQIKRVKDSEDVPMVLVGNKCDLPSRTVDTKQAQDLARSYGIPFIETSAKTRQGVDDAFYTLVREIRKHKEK
T3 sequence (P01116 1-169 isoform P01116-2): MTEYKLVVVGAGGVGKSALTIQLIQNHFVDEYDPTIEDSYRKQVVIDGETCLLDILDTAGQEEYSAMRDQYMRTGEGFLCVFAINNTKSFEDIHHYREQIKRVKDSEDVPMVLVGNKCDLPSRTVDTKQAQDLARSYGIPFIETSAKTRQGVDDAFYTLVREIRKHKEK
T2 sequence (P01116 1-169 isoform P01116-2 G12V): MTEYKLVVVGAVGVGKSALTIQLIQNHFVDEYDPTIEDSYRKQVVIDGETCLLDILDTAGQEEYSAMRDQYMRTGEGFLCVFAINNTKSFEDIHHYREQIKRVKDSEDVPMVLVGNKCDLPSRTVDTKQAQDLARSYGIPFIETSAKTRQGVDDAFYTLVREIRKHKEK

| IC50 ([1]; KRAS G12D-GppNHp/RAF1 RBD HTRF) [µM] | IC50 ([2]; KRAS G12V-GppNHp/RAF1 RBD HTRF) [µM] | IC50 [3, 7] [µM] | IC50 ([4]; KRAS WT-GppNHp/RAF1 RBD HTRF) [µM] | IC50 ([5]; KRAS G12R-GppNHp/RAF1 RBD HTRF) [µM] | IC50 ([6]; GP2d) [µM] | IC50 [1, 8] [µM] | IC50 [2, 9] [µM] | IC50 [4, 10] [µM] | IC50 [5, 11] [µM] | other results | SMILES |
| --- | --- | --- | --- | --- | --- | --- | --- | --- | --- | --- | --- |
| 0.1 to 1 | 0.1 to 1 | < 0.1 | 0.1 to 1 | 0.1 to 1 | < 0.1 |  |  |  |  |  | CC(=O)N1CCC[C@H](N(C)c2nc(OC[C@@]34CCCN3C[C@H](F)C4)nc3c(F)c(-c4ccc(F)c5sc(N)c(C#N)c45)c(C(F)(F)F)cc23)C1 [Compound 289] |
| 1 to 10 | 1 to 10 |  | 1 to 10 | 1 to 10 |  |  |  |  |  | IC50 ([3]; SW620 (KRAS G12V) cells): < 0.1 µM; IC50 [6]: < 0.1 µM | N#Cc1c(N)sc2c(F)ccc(-c3c(C(F)(F)F)cc4c(N5CCN6C(=O)OCC6C5)nc(OCC56CCCN5CC(F)C6)nc4c3F)c12 (stereo not drawn) [Compound 431] |
| 0.1 to 1 | 0.1 to 1 | < 0.1 | 0.1 to 1 | 0.1 to 1 | < 0.1 |  |  |  |  |  | CC(=O)N1C[C@H](N(C)c2nc(OC[C@@]34CCCN3C[C@H](F)C4)nc3c(F)c(-c4ccc(F)c5sc(N)c(C#N)c45)c(C(F)(F)F)cc23)C[C@H]1C [Compound 321] |
| 0.1 to 1 | 1 to 10 |  | 0.1 to 1 | 0.1 to 1 |  |  |  |  |  | IC50 ([3]; SW620 (KRAS G12V) cells): < 0.1 µM; IC50 [6]: < 0.1 µM | N#Cc1c(N)sc2c(F)ccc(-c3c(C(F)(F)F)cc4c(N5CCN6C(=O)CCC6C5)nc(OCC56CCCN5CC(F)C6)nc4c3F)c12 (stereo not drawn) [Compound 430] |
|  |  | < 0.1 |  |  | < 0.1 | < 0.1 | 0.1 to 1 | 0.1 to 1 | < 0.1 |  | N#Cc1c(N)sc2c(F)ccc(-c3c(C(F)(F)F)cc4c(N5CCCC(O)CC5)nc(OC[C@@]56CCCN5C[C@H](F)C6)nc4c3F)c12 (stereo partly drawn) [Compound 267] |
|  |  | < 0.1 |  |  | < 0.1 | 0.1 to 1 | 0.1 to 1 | < 0.1 | 0.1 to 1 |  | CC(C)C(=O)N1CC[C@@H](N(C)c2nc(OC[C@@]34CCCN3C[C@H](F)C4)nc3c(F)c(-c4ccc(F)c5sc(N)c(C#N)c45)c(C(F)(F)F)cc23)[C@H]1C [Compound 261] |
|  |  | < 0.1 |  |  | < 0.1 | 0.1 to 1 | 1 to 10 | 1 to 10 | 1 to 10 |  | CC(=O)N1CCN(c2nc(OC[C@@]34CCCN3C[C@H](F)C4)nc3c(F)c(-c4ccc(F)c5sc(N)c(C#N)c45)c(C(F)(F)F)cc23)C[C@H]1C [Compound 229] |
| 0.1 to 1 | 1 to 10 | < 0.1 | 0.1 to 1 | 0.1 to 1 | < 0.1 |  |  |  |  |  | C[C@H]1CS(=O)(=O)CCN1c1nc(OC[C@@]23CCCN2C[C@H](F)C3)nc2c(F)c(-c3ccc(F)c4sc(N)c(C#N)c34)c(C(F)(F)F)cc12 [Compound 302] |
|  |  |  |  |  |  |  |  |  |  | IC50 [1, 12]: < 0.1 µM; IC50 [2, 13]: < 0.1 µM; IC50 [3, 14]: < 0.1 µM; IC50 [4, 15]: < 0.1 µM; IC50 [5, 16]: < 0.1 µM; IC50 ([6]; GP2d, class symbols): < 0.1 µM | CCN1C[C@@H](N(CC)c2nc(OC[C@@]34CCCN3C[C@H](F)C4)nc3c(F)c(-c4ccc(F)c5sc(N)c(C#N)c45)c(C(F)(F)F)cc23)CC1=O (atropisomer, axis not shown) [Compound 634] |
| < 0.1 | 0.1 to 1 | < 0.1 | 0.1 to 1 | < 0.1 | < 0.1 |  |  |  |  |  | CCN(c1nc(OC[C@@]23CCCN2C[C@H](F)C3)nc2c(F)c(-c3ccc(F)c4sc(N)c(C#N)c34)c(C(F)(F)F)cc12)[C@H]1C[C@@H](C)N(C(=O)OC)C1 (atropisomer, axis not shown) [Compound 557] |
|  |  | < 0.1 |  |  |  | < 0.1 | 0.1 to 1 | < 0.1 | < 0.1 | IC50 [6]: < 0.1 µM | CCN(C)c1nc(OC[C@@]23CCCN2C[C@H](F)C3)nc2c(F)c(-c3ccc(F)c4sc(N)c(C#N)c34)c(C(F)(F)F)cc12 (single isomer, unassigned) [Compound 196] |
| < 0.1 | 0.1 to 1 | < 0.1 | 0.1 to 1 | < 0.1 | < 0.1 |  |  |  |  |  | CCN(c1nc(OC[C@@]23CCCN2C[C@H](F)C3)nc2c(F)c(-c3ccc(F)c4sc(N)c(C#N)c34)c(C(F)(F)F)cc12)[C@@H]1CCN(C(=O)N(C)C)[C@@H]1C [Compound 488] |
| 0.1 to 1 | 0.1 to 1 | < 0.1 | 0.1 to 1 | 0.1 to 1 | < 0.1 |  |  |  |  |  | C[C@@H]1CC[C@@H](O)CN1c1nc(OC[C@@]23CCCN2C[C@H](F)C3)nc2c(F)c(-c3ccc(F)c4sc(N)c(C#N)c34)c(C(F)(F)F)cc12 [Compound 314] |
|  |  |  |  |  |  | > 10 | > 10 | > 10 | > 10 | IC50 ([3]; SW620 (KRAS G12V) cells): > 1 µM; IC50 [6]: > 1 µM | N#Cc1c(N)sc2c(F)ccc(-c3c(C(F)(F)F)cc4c(N5CCOCC5)nc(OC[C@@]56CCCN5C[C@H](F)C6)nc4c3F)c12 (single isomer, unassigned) [Compound 199] |
|  |  | 0.1 to 1 |  |  | < 0.1 | 0.1 to 1 | 0.1 to 1 | 0.1 to 1 | 0.1 to 1 |  | CC(=O)N1C[C@@H](F)[C@H](N(C)c2nc(OC[C@@]34CCCN3C[C@H](F)C4)nc3c(F)c(-c4ccc(F)c5sc(N)c(C#N)c45)c(C(F)(F)F)cc23)C1 [Compound 186] |
|  |  |  |  |  |  |  |  |  |  | IC50 [1, 12]: 0.1 to 1 µM; IC50 [2, 13]: 0.1 to 1 µM; IC50 [3, 14]: < 0.1 µM; IC50 [4, 15]: 1 to 10 µM; IC50 [5, 16]: 0.1 to 1 µM; IC50 ([6]; GP2d, class symbols): < 0.1 µM | Cc1c(C(=O)N2CCC2)nn2c1CN(c1nc(OCC34CCCN3CC(F)C4)nc3c(F)c(-c4ccc(F)c5sc(N)c(C#N)c45)c(C(F)(F)F)cc13)CC2 (stereo not drawn) [Compound 742] |
| 1 to 10 | 1 to 10 | < 0.1 | 1 to 10 | 1 to 10 | < 0.1 |  |  |  |  |  | N#Cc1c(N)sc2c(F)ccc(-c3c(C(F)(F)F)cc4c(N5C[C@@H]6[C@H]5CCN6C(=O)C5CC5)nc(OC[C@@]56CCCN5C[C@H](F)C6)nc4c3F)c12 [Compound 535] |
